Experimental data reported in patent US9403776B2, “Aryl- and heteroaryl-substituted tetrahydrobenzazepines and use thereof to block reuptake of norepinephrine, dopamine, and serotonin” (Albany Molecular Research, Inc., priority 2005, dated 2016).
Counter-ions that a name gives are not always drawn.

| SMILES | melting point |
| --- | --- |
| CN1CCC(c2ccccc2)c2ccc(F)cc2C1.O=C(O)/C=C\C(=O)O (centres unmarked) | 153 to 155 °C |
| COc1ccc2c(c1)CN(C)CCC2c1cc(F)c(C#N)c(F)c1 (centres unmarked) (as salt: citrate) | 82 to 86 °C |
| COc1ccc2c(c1)CN(C)CCC2c1cc(F)c(O)c(F)c1 (centres unmarked) (as salt: citrate) [Example 62, 2,6-difluoro-4-(8-methoxy-2-methyl-2,3,4,5-tetrahydro-1H-benzo[c]azepin-5-yl)phenol] | 88 to 90 °C |
| CN1CCC(c2ccccc2)c2ccc(C#N)cc2C1 (centres unmarked) (as salt: maleate) | 67 to 69 °C |
| COc1ccc2c(c1)CN(C)CCC2c1ccc(O)c(F)c1 (centres unmarked) (as salt: maleate) [Example 63, 2-fluoro-4-(8-methoxy-2-methyl-2,3,4,5-tetrahydro-1H-benzo[c]azepin-5-yl)phenol] | 50 to 54 °C |
| COc1ccc2c(c1)CN(C)CCC2c1ccccc1 (racemic) (as salt: fumarate) [Example 1, (+/−)-8-methoxy-2-methyl-5-phenyl-2,3,4,5-tetrahydro-1H-benzo[c]azepine] | 171 to 173 °C |
| COc1cccc2c1C(c1ccccc1)CCN(C)C2 (racemic) (as salt: fumarate) [Example 2, (+/−)-6-methoxy-2-methyl-5-phenyl-2,3,4,5-tetrahydro-1H-benzo[c]azepine] | 154 to 156 °C |
| COc1ccc2c(c1)CN(C)CCC2c1ccc(F)cc1 (racemic) (as salt: hydrochloride) [Example 3, (+/−)-5-(4-fluorophenyl)-8-methoxy-2-methyl-2,3,4,5-tetrahydro-1H-benzo[c]azepine] | 149 to 150 °C |
| COc1ccc(C2CCN(C)Cc3cc(OC)ccc32)cc1 (racemic) (as salt: hydrochloride) [Example 5, (+/−)-5-(4-methoxyphenyl)-8-methoxy-2-methyl-2,3,4,5-tetrahydro-1H-benzo[c]azepine] | 165 to 166 °C |
| COc1ccc2c(c1)CN(C)CCC2c1ccc(Cl)cc1 (racemic) (as salt: hydrochloride) [Example 7, (+/−)-5-(4-chlorophenyl)-8-methoxy-2-methyl-2,3,4,5-tetrahydro-1H-benzo[c]azepine] | 152 to 153 °C |
| COc1ccc2c(c1)CN(C)CCC2c1ccc(F)c(F)c1 (racemic) (as salt: hydrochloride) [Example 9, (+/−)-5-(3,4-difluorophenyl)-8-methoxy-2-methyl-2,3,4,5-tetrahydro-1H-benzo[c]azepine] | 139 to 141 °C |
| COc1ccc2c(c1)CN(C)CCC2c1ccccc1Cl (racemic) (as salt: hydrochloride) [Example 10, (+/−)-5-(2-chlorophenyl)-8-methoxy-2-methyl-2,3,4,5-tetrahydro-1H-benzo[c]azepine] | 129 to 132 °C |
| COc1ccc2c(c1)CN(C)CCC2c1ccc(F)c(Cl)c1 (racemic) (as salt: hydrochloride) [Example 11, (+/−)-5-(3-chloro-4-fluorophenyl)-8-methoxy-2-methyl-2,3,4,5-tetrahydro-1H-benzo[c]azepine] | 167 to 169 °C |
| COc1ccc2c(c1)CNCCC2c1ccccc1 (racemic) (as salt: maleate) [Example 53, (+/−)-8-methoxy-5-phenyl-2,3,4,5-tetrahydro-1H-benzo[c]azepine] | 154 to 156 °C |
| COc1ccc2c(c1)CN(C(C)C)CCC2c1ccccc1 (racemic) (as salt: maleate) [Example 55, (+/−)-2-isopropyl-8-methoxy-5-phenyl-2,3,4,5-tetrahydro-1H-benzo[c]azepine] | 172 to 175 °C |
| CN1CCC(c2ccc(Cl)cc2)c2ccc(-c3ccc(N(C)C)nn3)cc2C1 (single isomer, unassigned) (as salt: maleate) [Example 45, {6-[5-(4-chlorophenyl)-2-methyl-2,3,4,5-tetrahydro-1H-benzo[c]azepine-8-yl]-pyridazin-3-yl}-dimethylamine] | 96 to 98 °C |
| Cc1ccc(-c2ccc3c(c2)CN(C)CCC3c2cccc(F)c2)nn1 (single isomer, unassigned; (+)) (as salt: citrate) [Example 84 (+), (+)-5-(3-fluorophenyl)-2-methyl-8-(6-methylpyridazin-3-yl)-2,3,4,5-tetrahydro-1H-benzo[c]azepine] | 90 to 95 °C |
| Cc1ccc2c(c1)CN(C)CCC2c1ccc(F)cc1 (single isomer, unassigned; (+)) (as salt: hydrochloride) [Example 16, (+)-5-(4-fluorophenyl)-2,8-dimethyl-2,3,4,5-tetrahydro-1H-benzo[c]azepine] | 243 to 244 °C |

| SMILES | melting point |
| --- | --- |
| Cc1ccc(-c2ccc3c(c2)CN(C)CCC3c2ccccc2)nn1 (single isomer, unassigned; (+)) (as salt: hydrochloride) [Example 24, (+)-2-methyl-8-(6-methyl-pyridazin-3-yl)-5-phenyl-2,3,4,5-tetrahydro-1H-benzo[c]azepine] | 168 to 170 °C |
| CN1CCC(c2ccccc2)c2ccc(-c3cccnn3)cc2C1 (single isomer, unassigned; (+)) (as salt: hydrochloride) [Example 25, (+)-2-methyl-5-phenyl-8-(pyridazin-3-yl)-2,3,4,5-tetrahydro-1H-benzo[c]azepine] | 154 to 156 °C |
| Cc1ccc(-c2ccc3c(c2)CN(C)CCC3c2ccc(Cl)cc2)nn1 (single isomer, unassigned; (+)) (as salt: hydrochloride) [Example 39, (+)-5-(4-chlorophenyl)-2-methyl-8-(6-methyl-pyridazin-3-yl)-2,3,4,5-tetrahydro-1H-benzo[c]azepine] | 179 to 181 °C (dec.) |
| CN1CCC(c2ccc(Cl)cc2)c2ccc(-c3cccnn3)cc2C1 (single isomer, unassigned; (+)) (as salt: hydrochloride) [Example 40, (+)-5-(4-chlorophenyl)-2-methyl-8-pyridazin-3-yl-2,3,4,5-tetrahydro-1H-benzo[c]azepine] | 187 to 189 °C (dec.) |
| CN1CCC(c2ccccc2)c2ccc(-c3ccc(N(C)C)nn3)cc2C1 (single isomer, unassigned; (+)) (as salt: maleate) [Example 26, (+)-dimethyl-[6-(2-methyl-5-phenyl-2,3,4,5-tetrahydro-1H-benzo[c]azepine-8-yl)-pyridazin-3-yl]-amine] | 99 to 102 °C |
| CN1CCC(c2ccccc2)c2ccc(-c3ncccn3)cc2C1 (single isomer, unassigned; (+)) (as salt: maleate) [Example 27, (+)-2-methyl-5-phenyl-8-(pyrimidin-2-yl)-2,3,4,5-tetrahydro-1H-benzo[c]azepine] | 76 to 78 °C |
| CN1CCC(c2ccccc2)c2ccc(-c3cncnc3)cc2C1 (single isomer, unassigned; (+)) (as salt: maleate) [Example 28, (+)-2-methyl-5-phenyl-8-(pyrimidin-5-yl)-2,3,4,5-tetrahydro-1H-benzo[c]azepine] | 93 to 96 °C |
| CN1CCC(c2ccccc2)c2ccc(-c3cnccn3)cc2C1 (single isomer, unassigned; (+)) (as salt: maleate) [Example 29, (+)-2-methyl-5-phenyl-8-(pyrazin-2-yl)-2,3,4,5-tetrahydro-1H-benzo[c]azepine] | 67 to 69 °C |
| CN1CCC(c2ccccc2)c2ccc(-c3ccncc3)cc2C1 (single isomer, unassigned; (+)) (as salt: maleate) [Example 31, (+)-2-methyl-5-phenyl-8-(pyridin-4-yl)-2,3,4,5-tetrahydro-1H-benzo[c]azepine] | 91 to 93 °C |
| CN1CCC(c2ccccc2)c2ccc(-c3cccc(N)n3)cc2C1 (single isomer, unassigned; (+)) (as salt: maleate) [Example 32, (+)-6-(2-methyl-5-phenyl-2,3,4,5-tetrahydro-1H-benzo[c]azepin-8-yl)pyridine-2-amine] | 112 to 114 °C |
| CN1CCC(c2ccccc2)c2ccc(N3CCOCC3)cc2C1 (single isomer, unassigned; (+)) (as salt: maleate) [Example 34, (+)-4-(2-methyl-5-phenyl-2,3,4,5-tetrahydro-1H-benzo[c]azepin-8-yl)morpholine] | 88 to 89 °C |
| Cc1noc(C)c1-c1ccc2c(c1)CN(C)CCC2c1ccc(Cl)cc1 (single isomer, unassigned; (+)) (as salt: maleate) [Example 43, (+)-5-(4-chlorophenyl)-8-(3,5-dimethylisoxazol-4-yl)-2-methyl-2,3,4,5-tetrahydro-1H-benzo[c]azepine] | 196 to 198 °C |
| CN1CCC(c2ccc(Cl)cc2)c2ccc(-c3ncccn3)cc2C1 (single isomer, unassigned; (+)) (as salt: maleate) [Example 44, (+)-5-(4-chlorophenyl)-2-methyl-8-pyrimidin-2-yl-2,3,4,5-tetrahydro-1H-benzo[c]azepine] | 84 to 85 °C |
| CN1CCC(c2ccc(Cl)cc2)c2ccc(N3CCOCC3)cc2C1 (single isomer, unassigned; (+)) (as salt: maleate) [Example 48, (+)-5-(4-chlorophenyl)-2-methyl-8-morpholin-4-yl-2,3,4,5-tetrahydro-1H-benzo[c]azepine] | 94 to 96 °C |
| CN1CCC(c2ccc3ccccc3c2)c2ccc(-c3cccnn3)cc2C1 (single isomer, unassigned; (+)) (as salt: maleate) [Example 50, (+)-2-methyl-5-naphthalen-2-yl-8-pyridazin-3-yl-2,3,4,5-tetrahydro-1H-benzo[c]azepine] | 99 to 102 °C |
| CN1CCC(c2ccc3ccccc3c2)c2ccc(N3CCOCC3)cc2C1 (single isomer, unassigned; (+)) (as salt: maleate) [Example 51, (+)-2-methyl-8-morpholin-4-yl-5-naphthalen-2-yl-2,3,4,5-tetrahydro-1H-benzo[c]azepine] | 110 to 112 °C |
| COc1ccc2c(c1)CN(C)CCC2c1ccc2sccc2c1 (single isomer, unassigned; (+)) (as salt: maleate) [Example 52 (+), (+)-5-benzo[b]thiophen-5-yl-8-methoxy-2-methyl-2,3,4,5-tetrahydro-1H-benzo[c]azepine] | 92 to 96 °C |
